Consider 2 compounds from patent publication US20250368697A1, “MODIFIED PEPTIDE DERIVED FROM URECHIS UNICINCTUS IN PREPARATION OF DRUG FOR TREATING ALCOHOLIC LIVER DISEASE” (Beijing Institute of Petrochemical Technology, priority 2024, published 2025).

Like-named read-outs stand apart in the source and are kept apart here. Where no end group is shown, it is not given here.

Data set [1] relates to HepG2 cells. Kind of data set: Biochemical indicators (ALT, AST, TC, TG, HDL-C, LDL-C) in alcoholic damaged HepG2 cells. The data set is classed as cell-based, human. As to conditions: 3 mM (positive control); 500 mM ethanol-damaged HepG2. The protocol: (§1) HepG2 cells are collected, digested, centrifuged, and resuspended. The HepG2 cells are then seeded into a 6-well plate at a density of 1×10^6 cells per well, with 1.6 mL of cell suspension added to each well. After incubating the plate in a 37° C., 5% CO2 incubator for 24 hours, 200 μL of distilled water is added to the blank wells as the blank group. Referring to Section 1.2.2.2 and the preparation of blank group cell sample, an anhydrous ethanol-induced damage model is established. The HepG2 cells are damaged with 500 mM anhydrous ethanol for 24 hours. The model group receives 200 μL of distilled water, while the positive control wells receive 200 μL of NAC at a final concentration of 3 mM. The treatment wells receive 200 μL of the modified peptide derived from Urechis unicinctus of F2-1 at final concentrations of 200 μM, 300 μM, and 400 μM (dissolved in water). After adding the modeling solution, the plate is incubated in a 37° C., 5% CO2 incubator for an additional 24 hours. The 6-well plate is then taken out and placed on ice. All liquids in the wells are discarded, and the cells are washed three times with pre-chilled phosphate buffer solution (PBS). High-efficiency radio immunoprecipitation assay (RIPA) lysis buffer is added, and the HepG2 cells are lysed on ice for 30 minutes. The lysates are then centrifuged at 12,000 rpm for 10 minutes at low temperature, and the white precipitate is discarded.
Reagent kits are purchased from Nanjing Jiancheng Bioengineering Institute. An enzyme-linked immunosorbent assay (ELISA) plate reader is used to measure biochemical indicators such as alanine aminotransferase (ALT), aspartate aminotransferase (AST), triglycerides (TG), total cholesterol (TC), high-density lipoprotein cholesterol (HDL-C), and low-density lipoprotein cholesterol (LDL-C).

For another data set, the system named is interleukin-6 (IL-6). Kind of data set: IL-6 content in alcoholic damaged HepG2 cells (ELISA). The data set is classed as cell-based, human. The following applies: 3 mM (positive control); 500 mM ethanol-damaged HepG2. Here is the method:
as §1, with “All liquids in the wells are discarded, and the cells are washed three times with pre-chilled phosphate buffer solution (PBS). High-efficiency radio immunoprecipitation assay (RIPA) lysis buffer is added, and the HepG2 cells are lysed on ice for 30 minutes. The lysates are then centrifuged at 12,000 rpm for 10 minutes at low temperature, and the white precipitate is discarded.” left out
(§2) ELISA kits are purchased from Hangzhou Leyi Biotechnology Co., Ltd. An ELISA plate reader is used to measure indicators such as the interleukin-1β (IL-1β) ELISA kit, interleukin-6 (IL-6) ELISA kit, and Cytochrome P450 2E1 (CYP2E1) ELISA kit.

A further data set concerns interleukin-1β (IL-1β). Kind of data set: IL-1β content in alcoholic damaged HepG2 cells (ELISA). Type of data set: cell-based, human. As to conditions: 3 mM (positive control); 500 mM ethanol-damaged HepG2. The protocol: as §1, with “All liquids in the wells are discarded, and the cells are washed three times with pre-chilled phosphate buffer solution (PBS). High-efficiency radio immunoprecipitation assay (RIPA) lysis buffer is added, and the HepG2 cells are lysed on ice for 30 minutes. The lysates are then centrifuged at 12,000 rpm for 10 minutes at low temperature, and the white precipitate is discarded.” left out
as §2

Data set [2] deals with Cytochrome P450 2E1 (CYP2E1). Kind of data set: CYP2E1 content in alcoholic damaged HepG2 cells (ELISA). The data set is classed as cell-based, human. As to conditions: 500 mM ethanol-damaged HepG2. The protocol: as §1, §2
The test system of data set [3] is HepG2 cells. Type of data set: cell-based. The following applies: human, 24 h. Here is the method:
When a cell density of the cells reached 90%, the cells are digested and passaged to form a single-cell suspension. The cell concentration is determined using a hemocytometer, and the suspension is adjusted to 8×10^4 cells per well. A volume of 180 μL of the cell suspension is added to each well of a 96-well plate. The 96-well plate is then incubated in a 37° C., 5% CO2 cell incubator for 24 hours. The cells are subjected to alcoholic damage for 24 hours using gradient concentrations of anhydrous ethanol at […] (final concentrations). A blank group received no addition. All solutions in the 96-well plate are aspirated, and 100 μL of a 10% CCK-8 solution is added to each well. After incubation for 1 hour, the absorbance is measured at 450 nanometers (nm) using a microplate reader. The cell viability is calculated using the following formula: […]
HepG2 cells are collected, digested, centrifuged, and resuspended. The HepG2cells are then seeded into a 96-well plate at a density of 8×10^4 cells per well, with 160 μL of cell suspension added to each well. After incubating the plate in a 37° C., 5% CO2 incubator for 24 hours, 20 μL of distilled water is added to a blank well as the blank group. Referring to Section 1.2.2.2 and the preparation of blank group cell sample, an anhydrous ethanol-induced damage model is established. The HepG2 cells are damaged with 500 mM anhydrous ethanol for 24 hours. The model group received 20 μL of distilled water, while the positive control wells received 20 μL of N-acetylcysteine (NAC) at a final concentration of 3 mM. The treatment wells receive 20 μL of the modified peptide derived from Urechis unicinctus of F2-1 at final concentrations of 200 μM, 300 μM, and 400 μM (dissolved in water). The 96-well plate is then incubated in a 37° C., 5% CO2 incubator for 24 hours after adding the modeling solution. […] The absorbance is measured at 450 nm using a microplate reader after 1 hour of incubation. The cell viability is calculated using the following formula: […]

Turning to `CC(=O)N[C@@H](CS)C(=O)O` [NAC, N-acetylcysteine], in the data set with HepG2 cells [1], the “ALT level in HepG2 cells” value was 7.93±0.14 U/L, the “AST level in HepG2 cells” value was found to be 8.26±0.30 U/L, the “HDL-C level in HepG2 cells” value was 0.12 ± 0.02 mmol/L and the “LDL-C level in HepG2 cells” value was 0.01 ± 0.00 mmol/L. Also, in the data set on HepG2 cells [1], the “TC level in HepG2 cells” value worked out at 0.06 ± 0.02 mmol/L and the “TG level in HepG2 cells” value is 0.49 ± 0.00 mmol/L. In addition, the “IL-6 content in HepG2 cells” value in the data set on interleukin-6 (IL-6) is 87.25 ± 5.30 pg/mL. Besides, the “IL-1β content in HepG2 cells” value in the data set with interleukin-1β (IL-1β) amounted to 123.36 ± 1.67 pg/mL. Moreover, the “CYP2E1 content in HepG2 cells” value in data set [2] (3 mM (positive control)) is 7.80±0.96 U/mg prot.

IHVKF [F2-1, IHVKF]: the cell viability was determined as 80.65±5.67% in the data set with HepG2 cells [3] (200 μM), 85.39±9.61% with HepG2 cells [3] (300 μM) and 94.58±4.22% in the data set with HepG2 cells [3] (400 μM). The “CYP2E1 content in HepG2 cells” value is “do not significantly reduce” in data set [2] (200 μM (low dose), vs model group); “do not significantly reduce” in data set [2] (300 μM (medium dose), vs model group); 7.97±0.78 U/mg prot in data set [2] (400 μM (high dose)).
